Experimental data reported in patent US8871751B2, “Compositions and methods relating to nuclear hormone and steroid hormone receptors including inhibitors of estrogen receptor alpha-mediated gene expression and inhibition of breast cancer” (The Board of Trustees of the University of Illinois, priority 2008, dated 2014).
Several values for one entry are separate records, joined by “and”; a condition that tells them apart may be missing. Equal entries are not always repeated. Where two headings read alike, the source gives them in different places. Each block holds one molecule with its values, some of them ahead of it.

How the values were obtained:
[1] = tested on: BG-1 ovarian cancer cells; experiment: BG-1 cell growth assay (MTS); type: cell-based; details: for IC50: 10 pM E2, 5 days, MTS, read-out: IC50 for inhibition of E2-dependent growth of BG-1 cells
Description: ERα positive BG-1 ovarian cancer cells (44) were provided by Prof. K. Korach. ERα negative MDA-MB-231 human breast cancer cell lines were provided by Prof. A. Nardulli. The cells are maintained in phenol red-free MEM medium with 5% calf serum and antibiotics. 4 days before hormone induction, cells are switched to phenol red-free MEM medium containing 5% 2XCD-treated calf serum for BG-1 cells. For BG-1 cell growth assays, 250 cells in 100 μl of phenol-red-free medium were added to wells of a 96-well plate. After 24 h, the indicated concentrations of the test compounds and 10 pM E2 or ethanol vehicle were added to each well. Compounds in DMSO were diluted in medium so that the DMSO concentration was not greater than 0.5%. Cell viability assays were carried out 5-6 days later using Promega CellTiter 96®Aqueous One Solution Cell Proliferation Assay (Promega, Wis.).

ERα [2] = target: T1, ERα (Homo sapiens, UniProt P03372); experiment: PI-9 mRNA induction in tamoxifen-resistant MCF7ERαHA cells (qRT-PCR); type: cell-based; design: endogenous in cells; details: Dox
T1 sequence (P03372 1-595): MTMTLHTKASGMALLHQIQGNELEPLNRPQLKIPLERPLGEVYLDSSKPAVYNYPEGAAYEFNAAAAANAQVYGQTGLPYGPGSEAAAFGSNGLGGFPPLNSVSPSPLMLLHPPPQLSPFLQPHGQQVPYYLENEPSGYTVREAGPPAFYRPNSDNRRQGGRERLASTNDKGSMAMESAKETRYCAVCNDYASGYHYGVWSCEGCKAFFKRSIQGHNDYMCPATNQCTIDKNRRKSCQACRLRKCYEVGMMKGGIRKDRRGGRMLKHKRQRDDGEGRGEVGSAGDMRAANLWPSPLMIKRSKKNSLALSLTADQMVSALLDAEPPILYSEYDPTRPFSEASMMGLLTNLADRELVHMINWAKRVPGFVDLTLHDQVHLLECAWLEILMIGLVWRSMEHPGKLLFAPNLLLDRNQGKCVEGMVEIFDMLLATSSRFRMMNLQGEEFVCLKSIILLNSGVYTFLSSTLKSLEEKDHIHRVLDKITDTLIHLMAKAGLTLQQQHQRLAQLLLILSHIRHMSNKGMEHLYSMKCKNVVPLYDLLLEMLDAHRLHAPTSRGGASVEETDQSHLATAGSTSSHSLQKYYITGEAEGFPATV
Excerpt: A model for tamoxifen-resistant breast cancers that overexpress ERα is MCF7ERαHA cells, which is a tetracycline-inducible MCF-7 model in which doxycycline (Dox) induces overexpression of ERα (40,41). In contrast to MCF-7 cells, in these cells Tam and OHT are potent agonists (2,42) and OHT, which stabilizes ERα, induced proteinase inhibitor 9 (PI-9) mRNA and protein more effectively than E2 (2,43). MCF7ERαHA cells were maintained in 10% 6XCD-treated FBS (40,41). All cells were in 0.1% DMSO vehicle and contained the indicated concentrations of TPBM added at the same time as the E2 or OHT. To induce PI-9 mRNA, the cells were treated with 0.5 μg/ml doxycycline to induce ERα and ethanol vehicle, 100 pM E2 or 500 pM OHT for 24 h, mRNA was extracted and PI-9 mRNA levels were determined by quantitative RT-PCR as described (2).
Endogenous Gene Expression. MCF-7 cells or MCF7ERαHA cells were maintained for 4 days in medium containing 5% CD calf serum (MCF-7 cells) or 10% 6×CD-FBS (MCF7ERαHA cells). In assays of TPSF inhibition of PI-9 induction, cells were plated, incubated for 24 hours in the indicated concentrations of TPSF and then maintained 4 hours with and without E2, with and without TPSF. To induce ERα, MCF7ERαHA cells were also maintained in 0.5 μg/ml Dox for 24 hours prior to addition of E2 or OHT with or without TPSF. For induction of cyclin D1, 24 hours after plating the cells, E2 with and without TPSF was added, the cells were maintained for 24 hours, RNA was extracted and mRNA levels were determined by quantitative RT-PCR as described (19, 26). Actin mRNA levels were used as the qRT-PCR internal standard. The primers and sequences used in qRT-PCR were as follows.

60 cancer cell lines = details: independent testing at NCI Developmental Therapeutics Program, cited from earlier work
ERα [3] = target: T1, ERα; experiment: (ERE)3-luciferase reporter gene assay in T47D-KBluc cells; type: cell-based; design: Using a stably transfected breast cancer cell line that expresses endogenous ERα; endogenous in cells; host or cells: T47D-KBluc
MCF7ERαHA cells = experiment: Growth of tamoxifen-resistant MCF7ERαHA cells (MTS); type: cell-based, human; details: 5 μM, Dox, 1 pM E2, 4 days
Description: FIG. 19 illustrates that TPSF, but not OHT, is capable of inhibiting E2-ERα-dependent growth of tamoxifen-resistant breast cancer cells as measured in MCF7ERαHA cells. MCF7ERαHA cells were maintained for 4 days in 6× stripped CD-FBS, seeded into 12 well plates containing or lacking Dox (0.5 μg/ml), E2 (1 pM) OHT (5 μM) and TPSF (5 μM), grown for 4 days and assayed using MTS with a standard curve for cell number. Cells in ethanol and DMSO vehicle alone were set to 100%. Data represents the average of 3 experiments±SEM. The difference between the cells incubated with TPSF+E2+Dox compared to the cells in Dox, and E2 and to the cells in Dox, E2 and OHT was significant (P<0.05 using Student's two-tailed T test).
Assays for Cell Growth and Viability. Cells were maintained in the media listed above containing CD-treated serum for at least 4 days prior to the experiment. To minimize cell aggregation, MCF-7 cells were harvested in 10 mM Hepes, pH 7.4, 1 mM EDTA. Other cell lines were harvested in trypsin-EDTA. 1,000 cells were plated into each well of a 96 well plate. For slow growing ZR-75 cells, 2,000 cells were plated/well. The cells were maintained in medium containing CD-treated serum for 24 hours. […] After 4 days viable cells were determined using a cell viability test, Promega CellTiter 96 Aqueous One Solution Cell Proliferation Assay (MTS) (Promega, Wis.).

IC50 [1]: ~5 µM
Compound: CN1CCC(C#N)c2ccccc21 (centres unmarked) [Compound 1529]
concentration inhibiting growth of BG-1 cells in the absence of E2 ([1]; no E2, 5 days): > 5 µM

inhibition of OHT-ERα induction of PI-9 mRNA (ERα [2]; 30 μM, 500 pM OHT): 48%
IC50 (ERα [2]; 100 pM E2, 24 h, read-out: IC50 for inhibition of E2-ERα induction of PI-9 mRNA): 9 µM and 8.5 µM
IC50 ([1]; Homo sapiens, BG-1, 120 h): 5 µM
Compound: Cn1c(=O)c2nc(CSCc3ccccc3)[nH]c2n(C)c1=O [Compound 95910, 8-Benzylsulfanylmethyl-1,3-dimethyl-3,7-dihydro-purine-2,6-dione]
potency for inhibiting E2-ERα-dependent cell growth relative to nonspecific toxicity [1]: > 10 fold
effect on E2-independent growth of BG-1 cells ([1]; no E2, 5 days): had no effect
effect on breast and ovarian cell growth (60 cancer cell lines; up to 100 μM): did not inhibit

effect on E2-mediated induction of PI-9 mRNA (ERα [2]; 10 μM, 100 pM E2): blocked
effect on OHT-ERα induction of PI-9 mRNA (ERα [2]; 10 μM, 500 pM OHT): blocked
IC50 (ERα [3]; 0.2 nM E2, 24 h, read-out: IC50 for inhibition of E2-ERα-mediated (ERE)3-luciferase expression): 0.4 µM
IC50 (ERα [3]; 100 nM E2, 24 h, read-out: IC50 for inhibition of E2-ERα-mediated (ERE)3-luciferase expression (ERE-Luc)): 0.7 µM
Compound: Cn1c(=S)c2[nH]c(SCCCC(=O)c3ccc(F)cc3)nc2n(C)c1=O [TPSF, Butyrophenone, p-fluoro-4-(1,2,3,6,-tetrahydro-1,3-dimethyl-2-oxo-6-thionopurin-8-ylthio)]
effect on growth of a panel of 60 cancer cell lines (60 cancer cell lines; 10 μM): does not inhibit growth
effect on E2-ERα-dependent growth of MCF7ERαHA cells (MCF7ERαHA cells): inhibited
